Laboratory results from the supplement of paper PMC6965134.
± gives the standard deviation of the averaged measurements.

Test: TIMS collisional cross section (CCS, N2) of the lipid ion; higher = larger ion cross section
Conditions: ionization mode: positive, one isomer drawn

Row | Structure (SMILES) | TIMS collisional cross section (sample type: HeLa) | TIMS collisional cross section (sample type: plasma) | TIMS collisional cross section (sample type: Liver)
1 | CCCCC/C=C\C/C=C\C/C=C\C/C=C\CCCC(=O)O[C@H](COC(=O)CCCCCCC/C=C\CCCCCC)COP(=O)([O-])OCC[N+](C)(C)C [PC 16:1_20:4] (ion (formula + adduct): [C44H78NO8P+H] 1+) | 285.8 Å² | 286.4 Å² | –
2 | CC/C=C\C/C=C\C/C=C\C/C=C\C/C=C\CCCC(=O)O[C@H](COC(=O)CCCCCCC/C=C\CCCCCC)COP(=O)([O-])OCC[N+](C)(C)C [PC 16:1_20:5] (ion (formula + adduct): [C44H76NO8P+H] 1+) | 283.2 Å² | – | –
3 | CC/C=C\C/C=C\C/C=C\C/C=C\C/C=C\C/C=C\CCC(=O)O[C@H](COC(=O)CCCCCCC/C=C\CCCCCC)COP(=O)([O-])OCC[N+](C)(C)C [PC 16:1_22:6@] (ion (formula + adduct): [C46H78NO8P+H] 1+) | 288.4 Å² | – | 289 Å²
4 | CC/C=C\C/C=C\C/C=C\C/C=C\C/C=C\C/C=C\CCC(=O)O[C@H](COC(=O)CCCCCCC/C=C\CCCCCC)COP(=O)([O-])OCC[N+](C)(C)C [PC 16:1_22:6] (ion (formula + adduct): [C46H78NO8P+H] 1+) | – | – | 288.5 Å²
5 | CCCCCCCC/C=C\CCCCCCCC(=O)O[C@H](COC(=O)CCCCCCCCCCCCCCCC)COP(=O)([O-])OCC[N+](C)(C)C [PC 17:0@_18:1] (ion (formula + adduct): [C43H84NO8P+H] 1+) | 291.8 Å² | – | –
6 | CCCCC/C=C\C/C=C\CCCCCCCC(=O)O[C@H](COC(=O)CCCCCCCCCCCCCCCC)COP(=O)([O-])OCC[N+](C)(C)C [PC 17:0@_18:2] (ion (formula + adduct): [C43H82NO8P+H] 1+) | – | – | 288.1 Å²
7 | CCCCC/C=C\C/C=C\C/C=C\C/C=C\CCCC(=O)O[C@H](COC(=O)CCCCCCCCCCCCCCCC)COP(=O)([O-])OCC[N+](C)(C)C [PC 17:0@_20:4] (ion (formula + adduct): [C45H82NO8P+H] 1+) | – | 292.4 Å² | –
8 | CCCCC/C=C\C/C=C\CCCCCCCC(=O)O[C@H](COC(=O)CCCCCCCCCCCCCCCC)COP(=O)([O-])OCC[N+](C)(C)C [PC 17:0_18:2] (ion (formula + adduct): [C43H82NO8P+H] 1+) | – | – | 288.1 Å²
9 | CCCCC/C=C\C/C=C\C/C=C\C/C=C\CCCC(=O)O[C@H](COC(=O)CCCCCCCCCCCCCCCC)COP(=O)([O-])OCC[N+](C)(C)C [PC 17:0_20:4] (ion (formula + adduct): [C45H82NO8P+H] 1+) | – | 292.9 Å² | –
10 | CC/C=C\C/C=C\C/C=C\C/C=C\C/C=C\CCCC(=O)O[C@H](COC(=O)CCCCCCC/C=C\CCCCCCC)COP(=O)([O-])OCC[N+](C)(C)C [PC 17:1@_20:5] (ion (formula + adduct): [C45H78NO8P+H] 1+) | 286.4 Å² | – | –
11 | CCCCCCC/C=C\CCCCCCCC(=O)OC[C@H](COP(=O)([O-])OCC[N+](C)(C)C)OC(=O)CCCCCCC/C=C\CCCCCCCC [PC 17:1_18:1] (ion (formula + adduct): [C43H82NO8P+H] 1+) | 289.2 Å² | – | –
12 | CCCCC/C=C\C/C=C\CCCCCCCC(=O)O[C@H](COC(=O)CCCCCCC/C=C\CCCCCCC)COP(=O)([O-])OCC[N+](C)(C)C [PC 17:1_18:2] (ion (formula + adduct): [C43H80NO8P+H] 1+) | – | – | 285.6 Å²
13 | CCCCC/C=C\C=C/CCCCCCCCC(=O)O[C@H](COC(=O)CCCCCCCCCCCCCCCCC)COP(=O)([O-])OCC[N+](C)(C)C [PC 18:0@_18:2] (ion (formula + adduct): [C44H84NO8P+H] 1+) | – | 292.6 Å² | –
14 | CCCCC/C=C\C/C=C\C/C=C\C/C=C\CCCC(=O)O[C@H](COC(=O)CCCCCCCCCCCCCCCCC)COP(=O)([O-])OCC[N+](C)(C)C [PC 18:0@_20:4] (ion (formula + adduct): [C46H84NO8P+H] 1+) | – | 296 Å² | –
15 | CC/C=C\C/C=C\C/C=C\C/C=C\C/C=C\CCCC(=O)O[C@H](COC(=O)CCCCCCCCCCCCCCCCC)COP(=O)([O-])OCC[N+](C)(C)C [PC 18:0@_20:5] (ion (formula + adduct): [C46H82NO8P+H] 1+) | – | 295.4 Å² | 296.3 Å²
16 | CCCCC/C=C\C/C=C\C/C=C\C/C=C\CCCCCC(=O)O[C@H](COC(=O)CCCCCCCCCCCCCCCCC)COP(=O)([O-])OCC[N+](C)(C)C [PC 18:0@_22:4] (ion (formula + adduct): [C48H88NO8P+H] 1+) | – | 300.7 Å² | –
17 | CCCCC/C=C\C/C=C\C/C=C\C/C=C\C/C=C\CCC(=O)O[C@H](COC(=O)CCCCCCCCCCCCCCCCC)COP(=O)([O-])OCC[N+](C)(C)C [PC 18:0@_22:5] (ion (formula + adduct): [C48H86NO8P+H] 1+) | 298.9 Å² | 299.3 ± 0.42 Å² | –
18 | CCCCCC/C=C\CCCCCCCCCC(=O)O[C@H](COC(=O)CCCCCCCCCCCCCCCCC)COP(=O)([O-])OCC[N+](C)(C)C [PC 18:0_18:1] (ion (formula + adduct): [C44H86NO8P+H] 1+) | 294.7 Å² | 295.2 Å² | –
19 | CCCCC/C=C\C=C/CCCCCCCCC(=O)O[C@H](COC(=O)CCCCCCCCCCCCCCCCC)COP(=O)([O-])OCC[N+](C)(C)C [PC 18:0_18:2] (ion (formula + adduct): [C44H84NO8P+H] 1+) | – | 291.1 Å² | 292.8 Å²
20 | CCCCC/C=C\C/C=C\CCCCCCCCCC(=O)O[C@H](COC(=O)CCCCCCCCCCCCCCCCC)COP(=O)([O-])OCC[N+](C)(C)C [PC 18:0_20:2@] (ion (formula + adduct): [C46H88NO8P+H] 1+) | – | – | 297.5 Å²
21 | CCCCC/C=C\C/C=C\C/C=C\C/C=C\CCCC(=O)O[C@H](COC(=O)CCCCCCCCCCCCCCCCC)COP(=O)([O-])OCC[N+](C)(C)C [PC 18:0_20:4] (ion (formula + adduct): [C46H84NO8P+H] 1+) | 296.2 Å² | – | 295.6 Å²

Other lines, results leading:

Row | TIMS collisional cross section (sample type: HeLa) | TIMS collisional cross section (sample type: plasma) | TIMS collisional cross section (sample type: Liver) | Structure (SMILES)
22 | – | 301 Å² | 299.3 Å² | CCCCC/C=C\C/C=C\C/C=C\C/C=C\C/C=C\CCC(=O)O[C@H](COC(=O)CCCCCCCCCCCCCCCCC)COP(=O)([O-])OCC[N+](C)(C)C [PC 18:0_22:5] (ion (formula + adduct): [C48H86NO8P+H] 1+)
23 | – | – | 297.9 Å² | CC/C=C\C/C=C\C/C=C\C/C=C\C/C=C\C/C=C\CCC(=O)O[C@H](COC(=O)CCCCCCCCCCCCCCCCC)COP(=O)([O-])OCC[N+](C)(C)C [PC 18:0_22:6] (ion (formula + adduct): [C48H84NO8P+H] 1+)
24 | 289.4 Å² | – | – | CC/C=C\C/C=C\C/C=C\C/C=C\CCCCC(=O)O[C@H](COC(=O)CCCCCCC/C=C\CCCCCCCC)COP(=O)([O-])OCC[N+](C)(C)C [PC 18:1@_18:4] (ion (formula + adduct): [C44H78NO8P+H] 1+)
25 | 292.7 Å² | – | – | CCCCC/C=C\C/C=C\C/C=C\C/C=C\CCCC(=O)O[C@H](COC(=O)CCCCCCC/C=C\CCCCCCCC)COP(=O)([O-])OCC[N+](C)(C)C [PC 18:1@_20:4] (ion (formula + adduct): [C46H82NO8P+H] 1+)
26 | 290.2 Å² | – | 290.9 Å² | CC/C=C\C/C=C\C/C=C\C/C=C\C/C=C\CCCC(=O)O[C@H](COC(=O)CCCCCCCCC/C=C\CCCCCC)COP(=O)([O-])OCC[N+](C)(C)C [PC 18:1@_20:5] (ion (formula + adduct): [C46H80NO8P+H] 1+)
27 | – | – | 297 Å² | CC/C=C\C/C=C\C/C=C\C/C=C\C/C=C\CCCCCC(=O)O[C@H](COC(=O)CCCCCCCCC/C=C\CCCCCC)COP(=O)([O-])OCC[N+](C)(C)C [PC 18:1@_22:5] (ion (formula + adduct): [C48H84NO8P+H] 1+)
28 | 292.9 Å² | – | – | CCCCCCC/C=C\CCCCCCCCC(=O)OC[C@H](COP(=O)([O-])OCC[N+](C)(C)C)OC(=O)CCCCCCCC/C=C\CCCCCCC [PC 18:1_18:1] (ion (formula + adduct): [C44H84NO8P+H] 1+)
29 | 290.1 Å² | – | – | CCCCCCCC/C=C\C/C=C\CCCCC(=O)O[C@H](COC(=O)CCCCCCC/C=C\CCCCCCCC)COP(=O)([O-])OCC[N+](C)(C)C [PC 18:1_18:2@] (ion (formula + adduct): [C44H82NO8P+H] 1+)
30 | – | 289.8 Å² | – | CCCCCCCC/C=C\C/C=C\CCCCC(=O)O[C@H](COC(=O)CCCCCCC/C=C\CCCCCCCC)COP(=O)([O-])OCC[N+](C)(C)C [PC 18:1_18:2] (ion (formula + adduct): [C44H82NO8P+H] 1+)
31 | 295.9 Å² | – | – | CCCCC/C=C\C/C=C\CCCCCCCCCC(=O)O[C@H](COC(=O)CCCCCCC/C=C\CCCCCCCC)COP(=O)([O-])OCC[N+](C)(C)C [PC 18:1_20:2] (ion (formula + adduct): [C46H86NO8P+H] 1+)
32 | 294 Å² | – | 293.7 Å² | CCCCCCCC/C=C\C/C=C\C/C=C\CCCC(=O)O[C@H](COC(=O)CCCCCCC/C=C\CCCCCCCC)COP(=O)([O-])OCC[N+](C)(C)C [PC 18:1_20:3] (ion (formula + adduct): [C46H84NO8P+H] 1+)
33 | – | 294.3 Å² | – | CCCCC/C=C\C/C=C\C/C=C\C/C=C\CCCC(=O)O[C@H](COC(=O)CCCCCCC/C=C\CCCCCCCC)COP(=O)([O-])OCC[N+](C)(C)C [PC 18:1_20:4] (ion (formula + adduct): [C46H82NO8P+H] 1+)
34 | 304.8 Å² | – | – | CCCCCCCC/C=C\CCCCCCCC(=O)OC[C@H](COP(=O)([O-])OCC[N+](C)(C)C)OC(=O)CCCCCCCCC/C=C\CCCCCCCCCC [PC 18:1_22:1@] (ion (formula + adduct): [C48H92NO8P+H] 1+)
